Earlier results, collected in patent US20100228037A1, “Process for Preparing Allylmercaptocaptopril (Cpssa) and Related Asymmetrical Disulfides” (Yeda Research And Development Co. Ltd. at the Weizmann …, priority 2006, published 2010).
Where two headings read alike, the source gives them in different places.

How the values were obtained:
[1] = system: rats
[2] = blood or plasma of mammals
[3] = in vitro, human blood
[4] = in vivo, rats
[5] = rats, immediately after administration

C=CCSSC[C@H](C)C(=O)N1CCC[C@H]1C(=O)O [CPSSA, allylmercaptocaptopril]
antihypertensive properties compared with unmodified captopril ([1]; rat, in vivo): improved antihypertensive properties
blood pressure [1, 5]: significantly decreased blood pressure
serum level of insulin [1, 5]: to near normal levels
serum level of triglycerides [1, 5]: to near normal levels
stability in blood or plasma [2]: stable in blood or plasma of mammals

C=CCS[S+]([O-])CC=C (stereo not shown) [allicin]
disintegration in blood after administration [3]: disintegrates in the blood a few minutes post its administration
disintegration in blood after administration [4]: disintegrates in the blood a few minutes post its administration
